Results published in patent US20230406860A1, “HETEROCYCLIC SPIRO COMPOUNDS AND METHODS OF USE” (AMGEN INC., priority 2020, published 2023).

Tests used:
[1] = tested on: extracellular signal-regulated kinase (ERK); conditions: preclinical studies; cited from earlier work
[2] = tested on: MIA PaCa-2 (human pancreatic carcinoma) cells; experiment: Cell viability assay (CellTiter-Glo), MIA PaCa-2; assay type: cell-based; conditions: 72 h
How it was run: (§1)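 Luminescent ATP read-out (CellTiter-Glo) after 72 h compound treatment of cells seeded overnight at 1.67E+04 cells/mL in RPMI 1640, 10% FBS; signal relative to DMSO, IC50 by 4-parameter logistic model.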

[3] = molecular target: GDP-bound KRAS protein (aa 1-169), containing both G12C and C118A amino acid substitutions (Homo sapiens, UniProt P01116, C118A/G12C); experiment: Coupled nucleotide exchange assay (SOS-mediated, AlphaScreen); assay type: biochemical; conditions: 2 h compound pre-incubation; read-out: Avg 2 h Coupled exchange IC50
Experimental: Coupled Nucleotide Exchange Assay:
For all subsequent steps, DTT was added to the reaction buffer at a final concentration of 1 mM. […] The assay plates were then read on a plate reader measuring luminescence signal. Signal intensity of compound-containing wells were normalized to DMSO control, and data were analyzed using a 4-parameter logistic model to calculate IC50 values.

[4] = tested on: A549 (human lung carcinoma) cells; experiment: Cell viability assay (CellTiter-Glo), A549; assay type: cell-based; conditions: 72 h
How it was run: as §1

Chain of GDP-bound KRAS protein (aa 1-169), containing both G12C and C118A amino acid substitutions (P01116 1-169 isoform P01116-2 G12C/C118A): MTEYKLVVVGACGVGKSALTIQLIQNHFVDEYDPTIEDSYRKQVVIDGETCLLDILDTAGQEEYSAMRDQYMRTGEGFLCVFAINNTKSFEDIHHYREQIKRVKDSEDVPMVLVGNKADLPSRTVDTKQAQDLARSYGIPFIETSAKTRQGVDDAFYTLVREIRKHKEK

For C=CC(=O)N1CCN(c2nc(=O)n(-c3c(C)ccnc3C(C)C)c3nc(-c4c(O)cccc4F)c(F)cc23)[C@@H](C)C1 [AMG 510], the “inhibition of ERK phosphorylation” value [1] is given as “inhibited nearly all detectable phosphorylation”.
C=CC(=O)N1CC2(CCN(c3nc4c(c(N[C@H](Cc5nnc(C)s5)CC(C)C)n3)CCC(C)(C)C4)C2)C1 [Example 1-51, 1-(6-(7,7-dimethyl-4-(((2S)-4-methyl-1-(5-methyl-1,3,4-thiadiazol-2-yl)-2-pentanyl)amino)-5,6,7,8-tetrahydro-2-quinazolinyl)-2,6-diazaspiro[3.4]octan-2-yl)-2-propen-1-one] gave an IC50 [2] of 3540 nM, an IC50 [3] of 50 nM and an IC50 [4] greater than 5000 nM.
Molecule C=CC(=O)N1CC2(CCN(c3nc4c(c(N[C@H](Cc5nnc(C)o5)CC(C)C)n3)CCC(C)(C)C4)C2)C1 [Example 1-52, 1-(6-(7,7-dimethyl-4-(((2S)-4-methyl-1-(5-methyl-1,3,4-oxadiazol-2-yl)-2-pentanyl)amino)-5,6,7,8-tetrahydro-2-quinazolinyl)-2,6-diazaspiro[3.4]octan-2-yl)-2-propen-1-one] has an IC50 [2] of 1410 nM, an IC50 [3] of 39 nM and an IC50 [4] greater than 5000 nM.
C=CC(=O)N1CC2(CCN(c3nc4c(c(N[C@H](Cc5cc(C)on5)CC(C)C)n3)CCC(C)(C)C4)C2)C1 [Example 1-53, 1-(6-(7,7-dimethyl-4-(((2S)-4-methyl-1-(5-methyl-1,2-oxazol-3-yl)-2-pentanyl)amino)-5,6,7,8-tetrahydro-2-quinazolinyl)-2,6-diazaspiro[3.4]octan-2-yl)-2-propen-1-one] gave an IC50 [2] of 994 nM, an IC50 [3] of 24 nM and an IC50 [4] greater than 5000 nM.
C=CC(=O)N1CC2(CCN(c3nc4c(c(N[C@H](Cc5ncc[nH]5)CC(C)C)n3)CCC(C)(C)C4)C2)C1 [Example 1-54, 1-(6-(4-(((2S)-1-(1H-imidazol-2-yl)-4-methyl-2-pentanyl)amino)-7,7-dimethyl-5,6,7,8-tetrahydro-2-quinazolinyl)-2,6-diazaspiro[3.4]octan-2-yl)-2-propen-1-one] gave an IC50 [2] of 1320 nM, an IC50 [3] of 49 nM and an IC50 [4] greater than 5000 nM.
For C=CC(=O)N1CC2(CCN(c3nc4c(c(N[C@H](Cc5c[nH]nn5)CC(C)C)n3)CCC(C)(C)C4)C2)C1 [Example 1-55, 1-(6-(7,7-dimethyl-4-(((2S)-4-methyl-1-(1H-1,2,3-triazol-4-yl)-2-pentanyl)amino)-5,6,7,8-tetrahydro-2-quinazolinyl)-2,6-diazaspiro[3.4]octan-2-yl)-2-propen-1-one], the IC50 [2] was 1270 nM, the IC50 [3] was 57 nM and the IC50 [4] was greater than 5000 nM.
Molecule C=CC(=O)N1CC2(CCN(c3nc(N[C@H](CC(=O)NC)CC(C)C)c4ccncc4n3)C2)C1 [Example 1-56] has an IC50 [2] greater than 5000 nM, an IC50 [3] of 4840 nM and an IC50 [4] greater than 25000 nM.
Work on C=CC(=O)N1CC2(CCN(c3nc4c(c(N[C@H](Cc5ncco5)CC(C)C)n3)CCCC4)C2)C1 [Example 1-57, 1-(6-(4-(((2S)-4-methyl-1-(1,3-oxazol-2-yl)-2-pentanyl)amino)-5,6,7,8-tetrahydro-2-quinazolinyl)-2,6-diazaspiro[3.4]octan-2-yl)-2-propen-1-one] yielded an IC50 [2] of 2490 nM, an IC50 [3] of 2100 nM and an IC50 [4] of 17900 nM.
For C=C(C(=O)N1CC2(CCN(c3nc(N[C@H](CC(=O)NC)CC(C)C)c4ccc(C)cc4n3)C2)C1)C(F)(F)F [Example 1-58, (3S)-N,5-dimethyl-3-((7-methyl-2-(2-(2-(trifluoromethyl)-2-propenoyl)-2,6-diazaspiro[3.4]octan-6-yl)-4-quinazolinyl)amino)hexanamide], the IC50 [2] was 1840 nM, the IC50 [3] was 403 nM and the IC50 [4] was 13500 nM.
C=CC(=O)N1CC2(CCN(c3nc(N[C@H](CC(=O)NC)CC(C)C)c4ccc(-c5nccs5)cc4n3)C2)C1 [Example 1-59, (3S)-N,5-dimethyl-3-((2-(2-(2-propenoyl)-2,6-diazaspiro[3.4]octan-6-yl)-7-(1,3-thiazol-2-yl)-4-quinazolinyl)amino)hexanamide] gave an IC50 [2] of 16 nM, an IC50 [3] of 10 nM and an IC50 [4] of 7860 nM.
C=CC(=O)N1CC2(CCN(c3nc4c(c(N[C@@H](CC(C)C)C(=O)NC)n3)CCCC4)C2)C1 [Example 1-60, (S)-2-((2-(2-acryloyl-2,6-diazaspiro[3.4]octan-6-yl)-5,6,7,8-tetrahydroquinazolin-4-yl)amino)-N,4-dimethylpentanamide] showed an IC50 [2] of 7060 nM, an IC50 [3] of 8280 nM and an IC50 [4] of 17900 nM.
